Emax and EC50 data for 15 molecules are collected here from patent US20240368150A1 (Hoffmann-La Roche Inc., priority 2021, published 2024).

Where two headings read alike, the source gives them in different places. A value given as a limit tells only on which side of the number the result lay.

Experiment [1] concerns primary human T-cells. In words: Proliferation assay after 5 days (CellTiter-Glo, CD3 stimulation; PBS counter screen). The format is cell-based. The conditions noted are these: T-cell, 120 h, CD3 stimulation; for Emax: 5 days, normalized to reference compound A1 as stimulator control = 100%, DMSO neutral control, read-out: Emax proliferation (% activation); for EC50: primary human T-cells, CellTiter-Glo after 5 days, EC50 of fitted sigmoidal curve, read-out: Tcell Proliferation CD3 EC50. In short, it runs like this:
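Read-out: CellTiter-Glo 2.0 luminescence (ATP ∝ cell number) at day 5 after compound addition. Compounds activating unstimulated cells or reducing viability flagged.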

The subject of experiment [2] is primary human T-cells.

Turning to `N[C@H]1CS(=O)(=O)c2cc(F)c(-c3nnc(NC45CC(F)(C4)C5)o3)cc2N(Cc2ccc(Cl)cc2)C1=O` [Example 499, (3R)-3-amino-5-[(4-chlorophenyl)methyl]-8-fluoro-7-[5-[(3-fluoro-1-bicyclo[1.1.1]pentanyl)amino]-1,3,4-oxadiazol-2-yl]-1,1-dioxo-2,3-dihydro-1λ^6,5-benzothiazepin-4-one], the Emax in the experiment on primary human T-cells [1] (Homo sapiens) came to 68%. Moreover, the EC50 in the experiment with primary human T-cells [1] (Homo sapiens) came out at 0.768 µM; in the experiment on primary human T-cells [2] it was 2.23 µM.

For `CN1CC(C)(c2nnc(-c3cc4c(cc3F)S(=O)(=O)C[C@H](N)C(=O)N4Cc3ccc(Cl)cc3)o2)C1` [Example 155, (3R)-3-amino-5-[(4-chlorophenyl)methyl]-7-[5-(1,3-dimethylazetidin-3-yl)-1,3,4-oxadiazol-2-yl]-8-fluoro-1,1-dioxo-2,3-dihydro-1λ^6,5-benzothiazepin-4-one], in the experiment with primary human T-cells [1] (Homo sapiens), the Emax was 72% and the EC50 amounted to 4.18 µM. Besides, in the experiment on primary human T-cells [2], the EC50 came out at 0.778 µM.

Turning to `CC(C)(C)c1nnc(-c2cc3c(cc2F)S(=O)(=O)C[C@H](N)C(=O)N3Cc2ccccn2)o1` [Example 224, (3R)-3-amino-7-(5-tert-butyl-1,3,4-oxadiazol-2-yl)-8-fluoro-1,1-dioxo-5-(2-pyridylmethyl)-2,3-dihydro-1λ^6,5-benzothiazepin-4-one], in the experiment on primary human T-cells [1] (Homo sapiens), the Emax turned out to be 31% and the EC50 was greater than 20 µM. The EC50 in the experiment on primary human T-cells [2] was greater than 20 µM.

Consider `CC(Nc1nnc(-c2cc3c(cc2F)S(=O)(=O)C[C@H](N)C(=O)N3Cc2ccc(Cl)cc2)o1)C(F)(F)F` (stereo partly drawn) [Example 498, (3R)-3-amino-5-[(4-chlorophenyl)methyl]-8-fluoro-1,1-dioxo-7-[5-[(2,2,2-trifluoro-1-methyl-ethyl)amino]-1,3,4-oxadiazol-2-yl]-2,3-dihydro-1λ^6,5-benzothiazepin-4-one], for which the Emax in the experiment on primary human T-cells [1] (Homo sapiens) turned out to be 103%. Also, the figures for the EC50 in the experiment with primary human T-cells [1] and in the experiment on primary human T-cells [2] were 1.08 µM and 0.724 µM, respectively.

For the molecule `CC1(c2nc(-c3cc4c(cc3F)S(=O)(=O)C[C@H](N)C(=O)N4Cc3ccc(Cl)cc3)no2)CCN(CC(F)(F)F)CC1` [Example 309, (3R)-3-amino-5-[(4-chlorophenyl)methyl]-8-fluoro-7-[5-[4-methyl-1-(2,2,2-trifluoroethyl)-4-piperidyl]-1,2,4-oxadiazol-3-yl]-1,1-dioxo-2,3-dihydro-1λ^6,5-benzothiazepin-4-one], the Emax in the experiment with primary human T-cells [1] (Homo sapiens) was 202%. In the experiment on primary human T-cells [2], this molecule had an EC50 of 0.443 µM.

As for `COC(=O)N1CCC(c2nnc(-c3cc4c(cc3F)S(=O)(=O)C[C@H](N)C(=O)N4Cc3ccc(Cl)cc3)o2)C1` (stereo partly drawn) [Example 166, methyl 3-[5-[(3R)-3-amino-5-[(4-chlorophenyl)methyl]-8-fluoro-1,1,4-trioxo-2,3-dihydro-1λ^6,5-benzothiazepin-7-yl]-1,3,4-oxadiazol-2-yl]pyrrolidine-1-carboxylate], the Emax with primary human T-cells [1] (Homo sapiens) is 104%. In addition, the EC50 with primary human T-cells [1] (Homo sapiens) stood at 0.904 µM; in the experiment on primary human T-cells [2], 0.567 µM.

Take `CC(C)(N)c1nnc(-c2cc3c(cc2F)S(=O)(=O)C[C@H](N)C(=O)N3Cc2ccc(Cl)cc2)o1` [Example 69]: in the experiment with primary human T-cells [1] (Homo sapiens), the Emax came to 171% and the EC50 was 4.77 µM. Besides, the EC50 in the experiment on primary human T-cells [2] was 1.67 µM.

In the case of `CC(=O)N1CCC2CC2(c2nnc(-c3cc4c(cc3F)S(=O)(=O)C[C@H](N)C(=O)N4Cc3ccc(Cl)cc3)o2)C1` (stereo partly drawn) [Example 180, (3R)-7-[5-(3-acetyl-3-azabicyclo[4.1.0]heptan-1-yl)-1,3,4-oxadiazol-2-yl]-3-amino-5-[(4-chlorophenyl)methyl]-8-fluoro-1,1-dioxo-2,3-dihydro-1λ^6,5-benzothiazepin-4-one], in the experiment on primary human T-cells [1] (Homo sapiens), the Emax came out at 103% and the EC50 was found to be 5.71 µM. Also, the EC50 in the experiment with primary human T-cells [2] amounted to 2.38 µM.

For the molecule `Cc1nc(F)ccc1-c1nnc(-c2cc3c(cc2F)S(=O)(=O)C[C@H](N)C(=O)N3Cc2ccc(Cl)cc2)o1` [Example 131, (3R)-3-amino-5-[(4-chlorophenyl)methyl]-8-fluoro-7-[5-(6-fluoro-2-methyl-3-pyridyl)-1,3,4-oxadiazol-2-yl]-1,1-dioxo-2,3-dihydro-1λ^6,5-benzothiazepin-4-one], in the experiment with primary human T-cells [1] (Homo sapiens), the Emax is 192% and the EC50 was found to be 0.347 µM. In addition, the EC50 in the experiment on primary human T-cells [2] is 0.376 µM.

For the molecule `CNC(=O)N1CCC(C)(c2nc(-c3cc4c(cc3F)S(=O)(=O)C[C@H](N)C(=O)N4Cc3ccc(Cl)cc3)no2)CC1` [Example 304, 4-[3-[(3R)-3-amino-5-[(4-chlorophenyl)methyl]-8-fluoro-1,1,4-trioxo-2,3-dihydro-1λ^6,5-benzothiazepin-7-yl]-1,2,4-oxadiazol-5-yl]-N,4-dimethyl-piperidine-1-carboxamide], the Emax with primary human T-cells [1] (Homo sapiens) was determined as 61%. The EC50 in the experiment on primary human T-cells [1] (Homo sapiens) was determined as 7.49 µM; in the experiment on primary human T-cells [2], 8.14 µM.

On to `CC1CN(Cc2nnc(-c3cc4c(cc3F)SC[C@H](N)C(=O)N4Cc3ccc(Cl)cc3)o2)C1` [Example 507, (3R)-3-amino-5-[(4-chlorophenyl)methyl]-8-fluoro-7-[5-[(3-methylazetidin-1-yl)methyl]-1,3,4-oxadiazol-2-yl]-2,3-dihydro-1,5-benzothiazepin-4-one], for which, in the experiment on primary human T-cells [1] (Homo sapiens), the Emax stood at 74% and the EC50 was found to be 2.23 µM. The EC50 in the experiment on primary human T-cells [2] is 8.04 µM.

For the molecule `Cc1nnc(-c2nc(-c3cc4c(cc3F)S(=O)(=O)C[C@H](N)C(=O)N4Cc3ccc(OC(F)(F)F)cc3)no2)o1` [Example 334, (3R)-3-amino-8-fluoro-7-[5-(5-methyl-1,3,4-oxadiazol-2-yl)-1,2,4-oxadiazol-3-yl]-1,1-dioxo-5-[[4-(trifluoromethoxy)phenyl]methyl]-2,3-dihydro-1λ^6,5-benzothiazepin-4-one], in the experiment with primary human T-cells [1] (Homo sapiens), the Emax was determined as 80% and the EC50 amounted to 0.345 µM. For the same molecule, the EC50 with primary human T-cells [2] turned out to be 0.239 µM.

As for `CN1CCCC(c2nnc(-c3cc4c(cc3F)S(=O)(=O)C[C@H](N)C(=O)N4Cc3ccc(Cl)cc3)o2)C1` (stereo partly drawn) [Example 154, (3R)-3-amino-5-[(4-chlorophenyl)methyl]-8-fluoro-7-[5-(1-methyl-3-piperidyl)-1,3,4-oxadiazol-2-yl]-1,1-dioxo-2,3-dihydro-1λ^6,5-benzothiazepin-4-one], in the experiment on primary human T-cells [1] (Homo sapiens), the Emax was 86% and the EC50 came out at 1.72 µM. The EC50 in the experiment on primary human T-cells [2] was 0.89 µM.

In the case of `COC(=O)N1CCC(n2nnc(-c3cc4c(cc3F)S(=O)(=O)C[C@H](N)C(=O)N4Cc3ccc(Cl)cc3)n2)C1` (stereo partly drawn) [Example 15, methyl 3-[5-[(3R)-3-amino-5-[(4-chlorophenyl)methyl]-8-fluoro-1,1,4-trioxo-2,3-dihydro-1λ^6,5-benzothiazepin-7-yl]tetrazol-2-yl]pyrrolidine-1-carboxylate], in the experiment with primary human T-cells [1] (Homo sapiens), the Emax was determined as 109% and the EC50 turned out to be 2.44 µM. In the experiment on primary human T-cells [2], the EC50 was determined as 0.832 µM.

`CC(=O)N[C@H]1CS(=O)(=O)c2cc(F)c(-c3nnn(C4CNCC(F)(F)C4)n3)cc2N(Cc2ccc(Cl)cc2)C1=O` (stereo partly drawn) [Example 26, N-[(3R)-5-[(4-chlorophenyl)methyl]-7-[2-(5,5-difluoro-3-piperidyl)tetrazol-5-yl]-8-fluoro-1,1,4-trioxo-2,3-dihydro-1λ^6,5-benzothiazepin-3-yl]acetamide]: in the experiment on primary human T-cells [1] (Homo sapiens), the Emax worked out at 64% and the EC50 amounted to 6.39 µM. This molecule returned an EC50 in the experiment on primary human T-cells [2] greater than 10 µM.
